Laboratory results from patent publication US20230022859A1, “TREATMENT OF CANCER WITH ANTI-OX40 ANTIBODIES AND MULTI-KINASE INHIBITORS” (BEIGENE, LTD., priority 2019, published 2023).

Assays:
[1] = tested on: tyrosine kinases, including RET, CBL, CHR4q12, DDR and Trk; conditions: cited from earlier work
[2] = tested on: CT26WT cells, a murine colon cancer cell line; experiment: CT26WT syngeneic colon tumor model, OX86 and Compound 1; assay type: in vivo, BALB/c mice; conditions: OX86 0.08 mg/kg QW i.p.; Compound 1 15 mg/kg QD p.o.
Description: Female BALB/c mice were subcutaneously implanted with 1×10^5 CT26WT cells, a murine colon cancer cell line, in 100 μL PBS in the right flank. After inoculation, the mice were randomized into 4 groups with 20 animals in each group according to the inoculation order. The mice were treated with vehicle (PEG400/0.1N HCl in saline, 40/60) as a negative control.
As monotherapy, OX86 was administered at 0.08 mg/kg once per week (QW) by intraperitoneal (i.p.) injection
Compound 1 was administered as a single therapy at 15 mg/kg once per day (QD) by oral gavage (p.o.). OX86 was administered at 0.08 mg/kg once per week (QW) by intraperitoneal (i.p.) injection in combination with Compound 1 at 15 mg/kg once per day (QD) by oral gavage (p.o.). Tumor volume was determined twice weekly in two dimensions using a caliper, and was expressed in mm3 using the formula: V=0.5(a×b2) where a and b are the long and short diameters of the tumor, respectively. Data is presented as mean tumor volume ±standard error of the mean (SEM). Tumor growth inhibition (TGI) is calculated using the following formula: […]

[3] = tested on: MC38 cells, a murine colon adenocarcinoma line; experiment: MC38 syngeneic colon adenocarcinoma model, 1A7.gr1 and Compound 1; assay type: in vivo, C57BL/6 mice
Description: Female C57BL/6 mice were subcutaneously implanted with 2×10^7 MC38 cells, a murine colon adenocarcinoma line; in 100 μL PBS in the right frank. After inoculation, mice were randomized into 4 groups according to tumor volume. Mice were treated with vehicle (PEG400/0.1N HCL in saline, 40/60) as a control. 1A7.gr1 (sequence previously disclosed in US 20150307617) was confirmed to bind to mouse OX40 in house.
The 1A7.gr1 antibody was administered at 2 mg/kg per week by intraperitoneal injection as a single agent. […] The 1A7.gr1 antibody in combination with Compound 1 was administered at the same dosages and routes of administration as described above. Tumor volumes were determined twice weekly.

[4] = target: T1, interaction between OX40 and OX40 ligand (Mus musculus, UniProt P47741); conditions: cited from earlier work
T1 sequence (P47741 20-272): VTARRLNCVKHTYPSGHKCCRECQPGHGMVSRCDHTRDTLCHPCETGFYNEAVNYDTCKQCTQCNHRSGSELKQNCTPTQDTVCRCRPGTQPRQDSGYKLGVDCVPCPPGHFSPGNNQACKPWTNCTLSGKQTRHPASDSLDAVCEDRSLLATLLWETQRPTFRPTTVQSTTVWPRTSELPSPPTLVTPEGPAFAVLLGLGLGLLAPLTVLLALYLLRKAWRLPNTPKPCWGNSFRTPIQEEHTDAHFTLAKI
T1 sequence (P43488 1-198 partner): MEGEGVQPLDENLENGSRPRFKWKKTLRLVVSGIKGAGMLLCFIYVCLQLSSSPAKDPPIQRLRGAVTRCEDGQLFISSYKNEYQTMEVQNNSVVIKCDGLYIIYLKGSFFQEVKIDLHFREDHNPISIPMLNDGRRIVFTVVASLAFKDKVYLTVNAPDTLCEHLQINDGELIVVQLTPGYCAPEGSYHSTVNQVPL

[5] = target: T2, full-length human OX40 expressed on HuT78/OX40 cells (human, UniProt P43489 29-277); experiment: FACS; cells not named in the sentence (taken as OX40-expressing cells); reference 445-2
T2 sequence: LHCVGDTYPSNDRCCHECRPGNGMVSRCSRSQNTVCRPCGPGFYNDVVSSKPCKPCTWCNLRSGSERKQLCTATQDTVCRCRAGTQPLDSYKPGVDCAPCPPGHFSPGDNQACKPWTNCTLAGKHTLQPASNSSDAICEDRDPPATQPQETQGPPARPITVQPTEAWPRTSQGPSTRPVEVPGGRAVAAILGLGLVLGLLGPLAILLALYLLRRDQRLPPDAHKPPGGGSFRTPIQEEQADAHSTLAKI

[6] = target: T3, recombinant OX40 protein with a His tag (Cat: 10481-H08H, Sino Biological) (UniProt P43489 29-216); experiment: Biacore; OX40 protein not given; reference 445-2
T3 construct: Bought protein; not shown: His tag
T3 sequence (looked up): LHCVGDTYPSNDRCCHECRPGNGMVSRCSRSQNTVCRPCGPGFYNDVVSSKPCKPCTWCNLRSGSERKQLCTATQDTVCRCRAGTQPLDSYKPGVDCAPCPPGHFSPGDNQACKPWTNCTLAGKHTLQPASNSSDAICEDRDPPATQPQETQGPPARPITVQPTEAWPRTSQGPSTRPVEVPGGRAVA

[7] = 1A7.gr1 2 mg/kg QW i.p., Compound 1 15 mg/kg QD p.o.

Question: What does the source list for `COCCNCc1ccc(-c2cc3nccc(Oc4ccc(NC(=O)C5(C(=O)Nc6ccc(F)cc6)CC5)cc4F)c3s2)nc1` [Compound 1]?
Answer: inhibition of tyrosine kinases [1]: potent inhibition; Mean Tumor Volume on Day 24 (mean ± SEM) [2]: 177.4 ± 28.5 mm^3; TGI (%) on Day 24 [2]: 91%; Tumor Free Animal (%) on Day 69 (complete responders) [2]: 5%; Mean Tumor Volume on Day 29 (mean ± SEM) [3, 7]: 712.5 mm^3; TGI (%) on Day 22 [3, 7]: 80%; complete response / mice being tumor free on day 22 ([3]; 1A7.gr1 2 mg/kg QW×4, Compound 1 15 mg/kg QD×22): 80%

B1: OX86: rat anti-mouse OX40 antibody of WO2016/057667 engineered with mouse IgG2a constant regions, VH SEQ ID NO: 32, VL SEQ ID NO: 33 (antibody, V domains shown)
VH: QVQLKESGPGLVQPSQTLSLTCTVSGFSLTGYNLHWVRQPPGKGLEWMGRMRYDGDTYYNSVLKSRLSISRDTSKNQVFLKMNSLQTDDTAIYYCTRDGRGDSFDYWGQGVMVTVSS
VL: DIVMTQGALPNPVPSGESASITCRSSQSLVYKDGQTYLNWFLQRPGQSPQLLTYWMSTRASGVSDRFSGSGSGTYFTLKISRVRAEDAGVYYCQQVREYPFTFGSGTKLEIK
modifications: mouse IgG2a constant regions
Question: What does the source list for B1?
Answer: blocking of OX40-OX40 ligand interaction [4]: does not block the interaction between OX40 and OX40 ligand; Mean Tumor Volume on Day 24 (mean ± SEM) [2]: 308.5 ± 115.8 mm^3; TGI (%) on Day 24 [2]: 84%; Tumor Free Animal (%) on Day 69 (complete responders) [2]: 50%

B2: 445-2 variant with K28T in the heavy chain and S24R in the light chain (antibody, V domains shown)
VH: QVQLVQSGAEVKKPGSSVKVSCKASGYTFTSYIIHWVRQAPGQGLEWMGYINPYNEGTRYAQKFQGRVTLTADKSTSTAYMELSSLRSEDTAVYYCARGYYGSSYAMDYWGQGTTVTVSS
VL: DIQMTQSPSSLSASVGDRVTITCRASQGISNYLNWYQQKPGKAIKLLIYDASTLYSGVPSRFSGSGSGTDFTLTISSLQPEDFATYYCQQYSKLPYTFGGGTKVEIK
Question: For B2, which “fold increase to the EC50 over the original 445-2 antibody” value [5] is on record?
Answer: 1.7 fold

B3: 445-2 variant with Y27G in the heavy chain and S24R in the light chain (antibody, V domains shown)
VH: QVQLVQSGAEVKKPGSSVKVSCKASGGKFTSYIIHWVRQAPGQGLEWMGYINPYNEGTRYAQKFQGRVTLTADKSTSTAYMELSSLRSEDTAVYYCARGYYGSSYAMDYWGQGTTVTVSS
VL: DIQMTQSPSSLSASVGDRVTITCRASQGISNYLNWYQQKPGKAIKLLIYDASTLYSGVPSRFSGSGSGTDFTLTISSLQPEDFATYYCQQYSKLPYTFGGGTKVEIK
Question: For B3, which “fold increase to the KD over the original 445-2 antibody” value [6] is on record?
Answer: 1.7 fold
